Assay results reported in ChEMBL document CHEMBL1201862, “PubChem BioAssay data set” (2004).
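In this assay, cells in 96-well plates receive the compound at five concentrations for 48 hours. Endpoints are linearly interpolated between the surrounding concentrations. The concentration for 50% growth inhibition is given as GI50.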 Active and inactive are the calls of the source. Cut-off read from the data, not from the text of the source: active = GI50 up to about 1.1 µM and inactive = higher.

Tests used:
Assay in all cases: NCI anticancer screen, dose series, 48 h
A498 = test system: A498
786-0 = test system: 786-0
HCT-116 = test system: HCT-116
MCF7 = test system: MCF7
OVCAR-8 = test system: OVCAR-8
SNB-75 = test system: SNB-75
M14 = test system: M14
A549 = test system: A549
HCT-15 = test system: HCT-15
ACHN = test system: ACHN
SNB-19 = test system: SNB-19
NCI-H460 = test system: NCI-H460
COLO 205 = test system: COLO 205
RXF 393 = test system: RXF 393
UACC-62 = test system: UACC-62
UACC-257 = test system: UACC-257
EKVX = test system: EKVX
PC-3 = test system: PC-3
SF-295 = test system: SF-295
SK-OV-3 = test system: SK-OV-3
NCI-H23 = test system: NCI-H23
OVCAR-5 = test system: OVCAR-5
LOX IMVI = test system: LOX IMVI
NCI/ADR-RES = test system: NCI/ADR-RES
HOP-62 = test system: HOP-62
BT-549 = test system: BT-549
DU-145 = test system: DU-145
NCI-H522 = test system: NCI-H522
SK-MEL-5 = test system: SK-MEL-5
UO-31 = test system: UO-31
TK-10 = test system: TK-10
NCI-H226 = test system: NCI-H226
SK-MEL-2 = test system: SK-MEL-2
T47D = test system: T47D
KM12 = test system: KM12
SW-620 = test system: SW-620
OVCAR-4 = test system: OVCAR-4
Malme-3M = test system: Malme-3M
IGROV-1 = test system: IGROV-1
SF-539 = test system: SF-539
HOP-92 = test system: HOP-92
SN12C = test system: SN12C
MDA-MB-435 = test system: MDA-MB-435
MOLT-4 = test system: MOLT-4
MDA-N = test system: MDA-N
HCC 2998 = test system: HCC 2998
CAKI-1 = test system: CAKI-1
OVCAR-3 = test system: OVCAR-3
SF-268 = test system: SF-268
MDA-MB-231 = test system: MDA-MB-231
RPMI-8226 = test system: RPMI-8226
HT-29 = test system: HT-29
HL-60 = test system: HL-60
U-251 = test system: U-251
CCRF-CEM = test system: CCRF-CEM
SK-MEL-28 = test system: SK-MEL-28
SR = test system: SR
Hs-578T = test system: Hs-578T
K562 = test system: K562

CCN1C/C(=C\c2ccc(Cl)cc2)C2=NN(c3ccccc3)C(c3ccc(Cl)cc3)C2C1 (stereo not given)
GI50 (A498): > 100 µM (inactive)
GI50 (786-0): > 100 µM (inactive)
GI50 (HCT-116): > 100 µM (inactive)
GI50 (MCF7): 53.1 µM (inactive)
GI50 (OVCAR-8): > 100 µM (inactive)
GI50 (SNB-75): > 100 µM (inactive)
GI50 (M14): > 100 µM (inactive)
GI50 (A549): > 100 µM (inactive)
GI50 (HCT-15): > 100 µM
GI50 (ACHN): > 100 µM (inactive)
GI50 (SNB-19): > 100 µM (inactive)
GI50 (NCI-H460): > 100 µM (inactive)
GI50 (COLO 205): > 100 µM (inactive)
GI50 (RXF 393): > 100 µM (inactive)
GI50 (UACC-62): > 100 µM (inactive)
GI50 (UACC-257): > 100 µM (inactive)
GI50 (EKVX): > 100 µM (inactive)
GI50 (PC-3): > 100 µM (inactive)
GI50 (SF-295): > 100 µM (inactive)
GI50 (SK-OV-3): > 100 µM (inactive)
GI50 (NCI-H23): > 100 µM (inactive)
GI50 (OVCAR-5): > 100 µM (inactive)
GI50 (LOX IMVI): > 100 µM (inactive)
GI50 (NCI/ADR-RES): > 100 µM (inactive)
GI50 (HOP-62): > 100 µM (inactive)
GI50 (BT-549): > 100 µM (inactive)
GI50 (DU-145): > 100 µM (inactive)
GI50 (NCI-H522): > 100 µM (inactive)
GI50 (SK-MEL-5): > 100 µM (inactive)
GI50 (UO-31): > 100 µM (inactive)
GI50 (TK-10): > 100 µM (inactive)
GI50 (NCI-H226): > 100 µM (inactive)

CNc1ccc(C(=O)CC(O)CCC(C)C2OC(=O)CC(O)CC(=O)CC(O)CC(O)CC(O)CC(O)CC3(O)CC(O)C(C(=O)NCCN4CCOCC4)C(CC(OC4OC(C)C(O)C(N)C4O)\C=C/C=C\C=C/C=C/C=C/C=C\C=C/C2C)O3)cc1 (stereo not given)
GI50 (A498): 0.321 µM (active)
GI50 (786-0): 1.01 µM (active)
GI50 (HCT-116): > 100 µM (inactive)
GI50 (SK-MEL-2): 6.43 µM (inactive)
GI50 (OVCAR-8): 4.23 µM (inactive)
GI50 (T47D): > 100 µM (inactive)
GI50 (SNB-75): > 100 µM (inactive)
GI50 (KM12): 2.84 µM (inactive)
GI50 (SW-620): > 100 µM (inactive)
GI50 (OVCAR-4): 2.74 µM (inactive)
GI50 (SNB-19): > 100 µM (inactive)
GI50 (RXF 393): > 100 µM (inactive)
GI50 (UACC-62): 1.68 µM (inactive)
GI50 (UACC-257): 0.537 µM (active)
GI50 (Malme-3M): 0.267 µM (active)
GI50 (IGROV-1): 6.34 µM (inactive)
GI50 (SF-539): 16 µM (inactive)
GI50 (HOP-92): > 100 µM (inactive)
GI50 (BT-549): 1.64 µM (inactive)
GI50 (SN12C): 0.417 µM (active)
GI50 (MDA-MB-435): 1.56 µM (inactive)
GI50 (MOLT-4): 2.3 µM (inactive)
GI50 (NCI-H522): 0.493 µM (active)
GI50 (MDA-N): 0.701 µM (active)
GI50 (UO-31): 0.404 µM (active)
GI50 (TK-10): 1.52 µM (inactive)
GI50 (NCI-H226): 3.81 µM (inactive)

C=CCn1c(-c2ccccc2)cs/c1=N\C(P(=O)(O)O)P(=O)(O)O
GI50 (HCC 2998): > 100 µM (inactive)
GI50 (786-0): > 100 µM (inactive)
GI50 (HCT-116): > 100 µM (inactive)
GI50 (CAKI-1): > 100 µM (inactive)
GI50 (MCF7): > 100 µM (inactive)
GI50 (M14): > 100 µM (inactive)
GI50 (A549): > 100 µM (inactive)
GI50 (HCT-15): > 100 µM
GI50 (KM12): > 100 µM (inactive)
GI50 (ACHN): > 100 µM (inactive)
GI50 (SNB-19): > 100 µM (inactive)
GI50 (NCI-H460): > 100 µM (inactive)
GI50 (COLO 205): > 100 µM (inactive)
GI50 (RXF 393): > 100 µM (inactive)
GI50 (UACC-62): > 100 µM (inactive)
GI50 (UACC-257): > 100 µM (inactive)
GI50 (Malme-3M): > 100 µM (inactive)
GI50 (EKVX): > 100 µM (inactive)
GI50 (PC-3): > 100 µM (inactive)
GI50 (IGROV-1): > 100 µM (inactive)
GI50 (OVCAR-3): > 100 µM (inactive)
GI50 (SF-268): > 100 µM (inactive)
GI50 (MDA-MB-231): > 100 µM (inactive)
GI50 (SF-539): > 100 µM (inactive)
GI50 (SF-295): > 100 µM (inactive)
GI50 (SK-OV-3): > 100 µM (inactive)
GI50 (NCI-H23): > 100 µM (inactive)
GI50 (OVCAR-5): > 100 µM (inactive)
GI50 (LOX IMVI): > 100 µM (inactive)
GI50 (NCI/ADR-RES): > 100 µM (inactive)
GI50 (HOP-62): > 100 µM (inactive)
GI50 (BT-549): > 100 µM (inactive)
GI50 (DU-145): > 100 µM (inactive)
GI50 (NCI-H522): > 100 µM (inactive)
GI50 (MDA-N): > 100 µM (inactive)
GI50 (SK-MEL-5): > 100 µM (inactive)
GI50 (UO-31): > 100 µM (inactive)
GI50 (TK-10): > 100 µM (inactive)
GI50 (NCI-H226): > 100 µM (inactive)

COC1=CCC2=C(CCN(C(=O)C3CCC3)C2Cc2ccc(OC)c(O)c2)C1 (stereo not given)
GI50 (A498): 19.4 µM (inactive)
GI50 (HCC 2998): 15.1 µM (inactive)
GI50 (786-0): 18.2 µM (inactive)
GI50 (HCT-116): 11.9 µM (inactive)
GI50 (CAKI-1): 30.6 µM (inactive)
GI50 (SK-MEL-2): 24.2 µM (inactive)
GI50 (MCF7): 7.14 µM (inactive)
GI50 (OVCAR-8): 37.2 µM (inactive)
GI50 (RPMI-8226): 29.4 µM (inactive)
GI50 (T47D): 19.4 µM (inactive)
GI50 (SNB-75): 10.7 µM (inactive)
GI50 (M14): 16.9 µM (inactive)
GI50 (A549): 31.6 µM (inactive)
GI50 (HCT-15): 4.85 µM
GI50 (KM12): 6.18 µM (inactive)
GI50 (SW-620): 12.8 µM (inactive)
GI50 (ACHN): 35.4 µM (inactive)
GI50 (OVCAR-4): 23 µM (inactive)
GI50 (SNB-19): 35.8 µM (inactive)
GI50 (NCI-H460): 12.2 µM (inactive)
GI50 (HT-29): 20.3 µM (inactive)
GI50 (COLO 205): 16 µM (inactive)
GI50 (HL-60): 4.3 µM (inactive)
GI50 (RXF 393): 4.68 µM (inactive)
GI50 (U-251): 28.9 µM (inactive)
GI50 (UACC-62): 20.4 µM (inactive)
GI50 (UACC-257): 17.3 µM (inactive)
GI50 (Malme-3M): 26.6 µM (inactive)
GI50 (EKVX): 25.7 µM (inactive)
GI50 (PC-3): 23.6 µM (inactive)
GI50 (IGROV-1): 26.8 µM (inactive)
GI50 (OVCAR-3): 5.93 µM (inactive)
GI50 (SF-268): 33.1 µM (inactive)
GI50 (MDA-MB-231): 21.1 µM (inactive)
GI50 (SF-539): 30.5 µM (inactive)
GI50 (SF-295): 15.9 µM (inactive)
GI50 (CCRF-CEM): 21.8 µM (inactive)
GI50 (SK-OV-3): 20.5 µM (inactive)
GI50 (NCI-H23): 10 µM (inactive)
GI50 (OVCAR-5): 29.5 µM (inactive)
GI50 (LOX IMVI): 36.6 µM (inactive)
GI50 (NCI/ADR-RES): 9.82 µM (inactive)
GI50 (HOP-92): 20.9 µM (inactive)
GI50 (HOP-62): 14.3 µM (inactive)
GI50 (SK-MEL-28): 45.3 µM (inactive)
GI50 (SN12C): 19.5 µM (inactive)
GI50 (SR): 5.69 µM (inactive)
GI50 (Hs-578T): 14.6 µM (inactive)
GI50 (DU-145): 20.3 µM (inactive)
GI50 (MDA-MB-435): 3.09 µM (inactive)
GI50 (MOLT-4): 12.7 µM (inactive)
GI50 (K562): 4.45 µM (inactive)
GI50 (NCI-H522): 16.6 µM (inactive)
GI50 (MDA-N): 2.7 µM (inactive)
GI50 (SK-MEL-5): 8.34 µM (inactive)
GI50 (TK-10): 17.5 µM (inactive)
GI50 (NCI-H226): 49.1 µM (inactive)
